In data set [1] the test system is MCF-7 (breast cancer cell line). In words: Antiproliferative assay. Format: cell-based, human. The note with it: read-out: Antiproliferative Activity IC50 ± SEM, MCF-7. How it is done:
(§1) 4.2.1.2. Assay for antiproliferative effect
(§2) To explore the antiproliferative potential of compounds MTT assay was performed according to previously reported procedure using different cell lines to explore the antiproliferative potential of compounds propidium iodide fluorescence assay was performed using different cell lines. To calculate the total nuclear DNA, a fluorescent dye (propidium iodide, PI) is used which can attach to the DNA, thus offering a quick and precise technique. PI cannot pass through the cell membrane and its signal intensity can be considered as directly proportional to quantity of cellular DNA. Cells whose cell membranes are damaged or have changed permeability are counted as dead ones. The assay was performed by seeding the cells of different cell lines at a density of 3000-7500 cells/well (in 200µl […]
(§3) atmospheric conditions. The medium was removed; the compounds were added to the plates at 10 µM concentrations (in 0.1% DMSO) in triplicates, followed by incubation for 48 h. DMSO (0.1%) was used as control. After incubation, medium was removed followed by the addition of PI (25 µl, 50µg/mL in water/medium) to each well of the plates. At -80 °C, the plates were allowed to freeze for 24 h, followed by thawing at 25 °C. A fluorometer (Polar-Star BMG Tech) was used to record the readings at excitation and emission wavelengths of 530 and 620 nm for each well. The percentage cytotoxicity of compounds was calculated using the following formula:
(§4) Where ATC= Absorbance of treated cells and AC= Absorbance of control. […]
(§5) positive control in the assay.

Data set [2] has as its system HT-29 (colon cancer cell line). Description: Antiproliferative assay. It is filed as cell-based, human. The note with it: read-out: Antiproliferative Activity IC50 ± SEM, HT-29. How it is done:
as §1, §2, §3, §4, §5

For data set [3], the system named is A-549 (epithelial cancer cell line). Description: Antiproliferative assay. Format: cell-based, human. Particulars: read-out: Antiproliferative Activity IC50 ± SEM, A-549. How it is done:
as §1, §2, §3, §4, §5

In data set [4] the test system is MCF-10A (human mammary gland epithelial) cell line. In words: Cell viability assay (MTT) on normal cell line. Format: cell-based. Particulars: 50 µM, four days. How it is done:
(§6) A cell viability test was performed using MCF-10A (human mammary gland epithelial) cell line to investigate the effect of 4a–e and 7a–e on normal cell lines. In this investigation, a concentration of 50 µM of the studied compound is employed for four days, after which cell viability is assessed.
(§7) 4.2. Biological evaluation
(§8) 4.2.1. Cytotoxic activity using MTT Assay and evaluation of IC50
(§9) MTT assay was carried out to study the effect of compounds on mammary epithelial cells (MCF-10A). The medium in which cells were propagated contained Dulbecco's modified Eagle's medium (DMEM)/ Ham's F-12 medium (1:1) supplemented with epidermal growth factor (20 ng/mL), hydrocortisone (500 ng/mL), insulin (10 μg/mL), 2 mM glutamine and 10% foetal calf serum. After every 2-3 days, the cells were passaged using trypsin ethylenediamine tetra acetic acid (EDTA). The cells were seeded at a density of 10^4 cells mL-1 in flat-bottomed culture plates containing 96 wells each. After 24 h, medium was removed from the plates and the compounds in (in 0.1% DMSO) were added (in 200 μL medium to yield a final concentration of 0.1% v/v) to the wells of plates. A single compound was designated with four wells followed by incubation of plates for 96h at 37°C. After incubation, medium was removed completely from the plates followed by addition of MTT (0.4 mg/mL in medium) to each well and subsequent incubation of plates for 3h. MTT (along with the medium) was removed and DMSO (150μL) was added to each well of the culture plates, followed by vortexing and subsequent measurement of absorbance (at 540 nm) using microplate reader. […]

Data set [5] has as its system Panc-1 (pancreas cancer cell line). In words: Antiproliferative assay. The note with it: read-out: Antiproliferative Activity IC50 ± SEM, Panc-1. It is filed as cell-based, human. How it is done: as §7
4.2.1. Cytotoxic activity using MTT Assay and evaluation of IC50 […]
cells were seeded at a density of 10^4 cells mL-1 in flat-bottomed culture plates containing 96 wells each. After 24 h, medium was removed from the plates and the compounds in (in 0.1% DMSO) were added (in 200 μL medium to yield a final concentration of 0.1% v/v) to the wells of plates. A single […]
incubation, medium was removed completely from the plates followed by addition of MTT (0.4 mg/mL in medium) to each well and subsequent incubation of plates for 3h. MTT (along with the medium) was removed and DMSO (150μL) was added to each well of the culture plates, followed by vortexing and subsequent measurement of absorbance (at 540 nm) using microplate reader. The data […]
as §1, §2, §3, §4, §5

The test system of data set [6] is four tested cancer cell lines (A-549, MCF-7, Panc-1, HT-29). Description: Antiproliferative assay, average over the four cell lines. Format: cell-based, human. Particulars: for GI50: mean of the four cancer cell lines. How it is done: The newly synthesized compounds were tested for antiproliferative activity against four different types of cancer cells: A-549 (epithelial cancer cell line), MCF-7 (breast cancer cell line), Panc-1 (pancreas cancer cell line), and HT-29 (colon cancer cell line).
After 24 h, medium was removed from the plates and the compounds in (in 0.1% DMSO) were added (in 200 μL medium to yield a final concentration of 0.1% v/v) to the wells of plates. A single compound was designated with four wells followed by incubation of plates for 96h at 37°C. After incubation, medium was removed completely from the plates followed by addition of MTT (0.4 mg/mL in medium) to each well and subsequent incubation of plates for 3h. MTT (along with the medium) was removed and DMSO (150μL) was added to each well of the culture plates, followed by vortexing and subsequent measurement of absorbance (at 540 nm) using microplate reader. The data are shown as percentage inhibition of proliferation in comparison with controls containing 0.1% 4.2.1.2. Assay for antiproliferative effect
To explore the antiproliferative potential of compounds MTT assay was performed according to previously reported procedure using different cell lines to explore the antiproliferative potential of compounds propidium iodide fluorescence assay was performed using different cell lines. To calculate the total nuclear DNA, a fluorescent dye (propidium iodide, PI) is used which can attach to the DNA, thus offering a quick and precise technique. PI cannot pass through the cell membrane and its signal intensity can be considered as directly proportional to quantity of cellular DNA. Cells whose cell membranes are damaged or have changed permeability are counted as dead ones. The assay was performed by seeding the cells of different cell lines at a density of 3000-7500 cells/well (in 200µl medium) in culture plates followed by incubation for 24h at 37 °C in humidified 5% CO2/95% air atmospheric conditions. The medium was removed; the compounds were added to the plates at 10 µM concentrations (in 0.1% DMSO) in triplicates, followed by incubation for 48 h. DMSO (0.1%) was used as control. After incubation, medium was removed followed by the addition of PI (25 µl, 50µg/mL in water/medium) to each well of the plates. At -80 °C, the plates were allowed to freeze for 24 h, followed by thawing at 25 °C. A fluorometer (Polar-Star BMG Tech) was used to record the readings at excitation and emission wavelengths of 530 and 620 nm for each well. The percentage cytotoxicity of compounds was calculated using the following formula:
Where ATC= Absorbance of treated cells and AC= Absorbance of control. Erlotinib was used as positive control in the assay.

Data set [7] in a line: Cell viability assay (MTT) on normal cell line. It is filed as cell-based, human. Particulars: human, four days. How it is done:
as §6, §7, §8, §9

The target of data set [8] is T1, EGFR (Homo sapiens, UniProt P00533). Also noted: 645–1186); His6 (N); made in house; host or cells: Sf-9 insect cells (baculovirus; pBlueBacHis2B and pFASTBacHTc vectors. The note with it: cited from earlier work.
T1 sequence (P00533 669-1210): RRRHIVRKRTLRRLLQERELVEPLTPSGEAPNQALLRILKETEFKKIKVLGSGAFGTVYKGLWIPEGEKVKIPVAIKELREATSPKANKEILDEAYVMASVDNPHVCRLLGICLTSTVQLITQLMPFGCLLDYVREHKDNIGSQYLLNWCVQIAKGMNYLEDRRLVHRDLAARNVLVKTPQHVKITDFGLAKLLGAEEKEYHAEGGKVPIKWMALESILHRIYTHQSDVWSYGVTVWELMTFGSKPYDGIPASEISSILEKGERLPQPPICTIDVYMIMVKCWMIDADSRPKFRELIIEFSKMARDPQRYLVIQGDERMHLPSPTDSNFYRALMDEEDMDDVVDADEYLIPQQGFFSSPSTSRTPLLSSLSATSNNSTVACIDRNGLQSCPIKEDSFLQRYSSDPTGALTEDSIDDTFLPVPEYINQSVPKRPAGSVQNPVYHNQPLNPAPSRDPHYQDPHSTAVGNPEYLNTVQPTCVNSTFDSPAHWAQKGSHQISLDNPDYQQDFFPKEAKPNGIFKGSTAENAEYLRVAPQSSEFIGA
Data set [9] deals with caspase-9. Also noted: method as in PMID 35195309. Particulars: human Panc-1 cancer cells; cited from earlier work.
For data set [10], the system named is Bcl-2. Also noted: method as in PMID 35195309. The note with it: cited from earlier work.
In data set [11] the test system is Cytochrome-C. Also noted: method as in PMID 35195309. Particulars: human Panc-1 cancer cells; cited from earlier work.
In data set [12] the test system is caspase-3. Also on record: method as in PMID 35195309. Particulars: human Panc-1 cancer cells; cited from earlier work.
Data set [13] concerns Bax. Also on record: method as in PMID 35195309. The note with it: vs normal untreated cells; cited from earlier work.
Data set [14] deals with four cancer cell lines. Also noted: method as in PMID 35195309. Particulars: cited from earlier work.
The subject of data set [15] is caspase-3. In words: Caspase-3 activation assay. The note with it: A-549, vs control untreated cells.
Procedure: (§10) record autophosphorylation level, EGFR kinase assay was carried out based on DELFIA/Time-
(§11) Resolved Fluorometry. The compounds were first dissolved in DMSO absolute, after dilution to
Each compound (10 µL) was incubated
(§12) with recombinant enzyme (10 µL, 5 ng for EGFR, 1:80 dilution in 100 mM HEPES) for 10 min at
(§13) 25 °C, after the addition of 5X buffer (10 µL, containing 2 mM MnCl2, 100 µM Na3VO4, 20 mM HEPES and 1 mM DTT) and ATP-MgCl2 (20 µL, containing 0.1 mM ATP and 50 mM MgCl2) and
(§14) incubation for 1h. The negative and positive controls were included in each plate by the incubation
(§15) of enzyme either with or without ATP-MgCl2. The liquid was removed after incubation and the plates
(§16) were washed thrice using wash buffer. Europium-tagged antiphosphotyrosine antibody (75 µL, 400
(§17) ng) was added to each well followed by incubation of 1h and then washing of the plates using buffer.
(§18) The enhancement solution was added to each well and the signal was recorded at excitation and
(§19) The autophosphorylation percentage inhibition by compounds was calculated using the following equation:
The target of data set [16] is T1, EGFR. Description: EGFR inhibitory assay (EGFR-TK, DELFIA/time-resolved fluorometry).
Procedure: EGFR-TK assay was performed to evaluate the inhibitory potency of novel compounds against
EGFR. Baculoviral expression vectors including pBlueBacHis2B and pFASTBacHTc were used
5ʹ upstream to the EGFR sequence comprised a sequence that encoded (His)6. Sf-9 cells were infected for 72h for protein expression. The pellets of Sf-9 cells were solubilized in a buffer containing sodium vanadate (100 µM), aprotinin (10 µg/mL), triton (1%), HEPES buffer (50mM), ammonium molybdate (10 µM), benzamidine HCl (16 µg/mL), NaCl (10 mM), leupeptin (10 µg/mL) and pepstatin (10 µg/mL) at 0°C for 20 min at pH 7.4, followed by centrifugation for 20 min.
To eliminate the non-specifically bound material, a Ni-NTA super flow packed column was used to pass through and wash the crude extract supernatant first with 10 mM and then with 100 mM imidazole. Histidine-linked proteins were first eluted with 250 and then with 500 mM imidazole after (1 picture or pasted object on this page, not shown here)
dialysis against NaCl (50 mM), HEPES (20 mM), glycerol (10%) and 1 µg/mL each of aprotinin, leupeptin and pepstatin for 120 min. The purification was performed either at 4 °C or on ice. To
as §10, §11
Each compound (10 µL) was incubated
as §12, §13, §14, §15, §16, §17, §18, §19
[17] abbreviates: MCF-10A mammary gland epithelial cells.

Read-outs that look alike come from different tables or passages of the source.

As for “4,4′-(((naphthalene-1,8-diylbis(oxy))bis(methylene))bis(1H-1,2,3-triazole-4,1-diyl))-bis-(8-methylquinolin-2(1H)-one) [Compound 4d]”, the IC50 came to 95 ± 9 nM in data set [1] (MCF-7), 97 ± 9 nM in data set [2], 90 ± 9 nM in [3] (A-549) and 98 ± 9 nM in [5] (Panc-1). For the same compound, the “Cell Viability %” value in data set [4] is 86%. The compound also registered a GI50 in [6] of 95 nM. For the same compound, the “times less potent than 4b (GI50)” value in data set [6] (relative to 4b) is reported as “at least twofold less potent”.
Take `COc1ccc2[nH]c(=O)cc(-n3cc(COc4cccc5c(OCc6cn(-c7cc(=O)[nH]c8ccc(OC)cc78)nn6)cccc45)nn3)c2c1` [Compound 7c, 4,4′-(((naphthalene-1,5-diylbis(oxy))bis(methylene))bis(1H-1,2,3-triazole-4,1-diyl))-bis-(6-methoxyquinolin-2(1H)-one)]: the melting point was greater than 360 °C. In addition, the IC50 in [1] (Homo sapiens, MCF7) turned out to be 74 ± 7 nM. In [2] (Homo sapiens), the IC50 was 76 ± 7 nM. In addition, the IC50 in data set [3] (Homo sapiens, A549) was 70 ± 7 nM. The compound further yielded a viability at 96 h, 50 µM in data set [7] (setting [17]) of 91%. Moreover, in data set [5] (Homo sapiens, PANC-1), the IC50 stood at 75 ± 7 nM. The compound also registered a GI50 in data set [6] (Homo sapiens) of 74 nM.
For `COc1ccc2[nH]c(=O)cc(-n3cc(COc4cccc5cccc(OCc6cn(-c7cc(=O)[nH]c8ccc(OC)cc78)nn6)c45)nn3)c2c1` [Compound 4c, 4,4′-(((naphthalene-1,8-diylbis(oxy))bis(methylene))bis(1H-1,2,3-triazole-4,1-diyl))-bis-(6-methoxyquinolin-2(1H)-one)], the melting point is greater than 360 °C. The IC50 in data set [1] (Homo sapiens, MCF7) was determined as 79 ± 8 nM. In addition, the IC50 in data set [2] (Homo sapiens) was 81 ± 8 nM. The IC50 in data set [3] (Homo sapiens, A549) amounted to 78 ± 8 nM. In [7] (setting [17]), the viability at 96 h, 50 µM amounted to 87%. In data set [5] (Homo sapiens, PANC-1), the IC50 worked out at 83 ± 8 nM. Further, the GI50 in [6] (Homo sapiens) was 80 nM.
`O=c1cc(-n2cc(COc3cccc4c(OCc5cn(-c6cc(=O)[nH]c7ccccc67)nn5)cccc34)nn2)c2ccccc2[nH]1` [Compound 7a, 4,4′-(((naphthalene-1,5-diylbis(oxy))bis(methylene))bis(1H-1,2,3-triazole-4,1-diyl))-bis-(quinolin-2(1H)-one)] showed a melting point greater than 360 °C. In addition, in data set [1] (Homo sapiens, MCF7), the concentration for half-maximal inhibition (IC50) amounted to 59 ± 6 nM. Further, the concentration for half-maximal inhibition (IC50) in data set [2] (Homo sapiens) was found to be 65 ± 6 nM. The IC50 in data set [3] (Homo sapiens, A549) worked out at 57 ± 6 nM. Besides, the viability at 96 h, 50 µM in data set [7] (setting [17]) was 89%. For the same compound, in [5] (Homo sapiens, PANC-1), the IC50 worked out at 62 ± 6 nM.
Take `CN(C)c1ccc(/C=C/C(=O)c2ccc3ncc(C(N)=O)c(Nc4ccc(Cl)cc4)c3c2)cc1` [III]: the half-inhibitory concentration (IC50) in data set [8] is 5200 nM.
Regarding `O=C(CSc1nnc(Cn2cc(-c3ccccc3)nn2)o1)Nc1nc(-c2ccc(Cl)cc2)cs1` [Compound VI], the Caspase-9 level increase in data set [9] is listed as 19.30 times. Further, the Bcl-2 level decrease in [10] was 6.3 fold. For the same compound, the Cytochrome-C level increase in [11] is given as 13 times. Further, the Caspase-3 level increase in data set [12] is 7.80 times. For the same compound, the Bax level elevation in data set [13] is 40 fold. Moreover, the GI50 in [14] is 230 nM. The 50% inhibitory concentration (IC50) in data set [8] is 110 nM.
`Cc1cccc2c(-n3cc(COc4cccc5c(OCc6cn(-c7cc(=O)[nH]c8c(C)cccc78)nn6)cccc45)nn3)cc(=O)[nH]c12` [Compound 7d, 4,4′-(((naphthalene-1,5-diylbis(oxy))bis(methylene))bis(1H-1,2,3-triazole-4,1-diyl))-bis-(8-methylquinolin-2(1H)-one)]: the IC50 in data set [1] (Homo sapiens, MCF7) turned out to be 53 ± 5 nM; in data set [2] (Homo sapiens) it was 57 ± 5 nM; in data set [3] (Homo sapiens, A549) it was 50 ± 5 nM; in [16], 97 ± 9 nM; in data set [5] (Homo sapiens, PANC-1) it was 57 ± 5 nM. Also, the “Caspase-3 Fold Change” value in data set [15] stood at 7.40. The viability at 96 h, 50 µM in data set [7] (MCF-10A mammary gland epithelial cells (normal cell line)) came out at 89%. Also, in [16] (relative to erlotinib), the “fold less effective than erlotinib (EGFR IC50)” value is listed as “roughly 1.3 fold”. In [6] (Homo sapiens), this compound returned a GI50 of 54 nM.

As usually defined, the IC50 is the concentration that inhibits the measured activity by half. A word on the GI50: it is the concentration at which growth is held to half of that of the control. The term viability denotes the share of living cells, or the viability signal relative to a control. A low value points to more harm to the cells. In general, melting point refers to the temperature of the solid-liquid transition.

Values taken from article PMC9788418, “Design, Synthesis and Biological Evaluation of Syn and Anti-like Double Warhead Quinolinones Bearing Dihydroxy Naphthalene Moiety as Epidermal Growth Factor Receptor Inhibitors with Potential Apoptotic Antiproliferative Action” (Molecules, 2022).
